The values below come from patent US20220088131A1, “COMPOSITIONS AND METHODS RELATING TO C5L2” (King's College London, priority 2013, published 2022).

Test [1] relates to human CD4+ T cells. As to the kind of experiment: Effect of carboxypeptidase M inhibition on cytokine secretion in CD4+ T cells (CBA). As to conditions: resting and activated CD4+ T cells, 36 hours. It counts as cell-based. The procedure: FIG. 12A. Effect of carboxypeptidase M (CPM) inhibition on cytokine secretion in resting and activated CD4+ T cells. CD4+ T cells (2.5×10^5) were activated as depicted for 36 hours and supernatants assayed for Th1/2/17 cytokines using CBA. Cells were treated with either C5aR/C5L2 double receptor antagonist (dRA; 7 μM), C5aR antagonist (PMX53; 10 μM), with or without a carboxypetidase M inhibitor (CPMi) or activated in media without any addition as a first control (non-treated, NT) or with a control peptide that lacks activity towards C5a and C5L2 as a second control (Control). The effect of antagonist treatment was assessed in non-activated T cells (white bars), as well as T cells activated with 0.25 μg plate-bound anti-CD3 (light grey bars), anti-CD3/28 (dark grey bars) or anti-CD3/46 (black bars). Data represent n=4 with standard error of the mean indicated. Bar graphs showing effect of CPMi on secretion of IL-17, IFN-γ, and TNFα by resting and activated CD4+ T cells. FIG. 12B. […]
CD4^+ T cells and CD14^+ monocytes were cultured in medium (RPMI-1640 medium (Sigma-Alich, Suffolk, UK), supplemented with 1% GlutaMAX, 1% penicillin/streptomycin (both Life Technologies, Paisley, UK) and 10% FBS (HyClone Laboratories, Logan, Utah). In the case of T cells media was supplemented with 25 U/ml IL-2 (Sigma-Aldrich; or with concentrations indicated in figure legends). CD4^+ T cells (2.5×10^5) were cultured alone or together with plate-bound anti-CD3 (OKT3, Biolegend, San Diego, Calif.), anti-CD3 and anti-CD28 (CD28.2, BD Pharmingen, San Jose, Calif.) or anti-CD3 and anti-CD46 (TRA-2-10, provided by John Atkinson, Washington University, St Louis, Mo.) all immobilised onto 48-well plates at concentrations of 2 μg/ml PBS overnight at 4° C. […] Cells were cultured at 37° C. and 5% CO2 and cytokine secetion assessed at 12, 24 or 36 h post activation.
The Th1/Th2/Th17 Cytometric Bead Array (BD Bioscience) was used to quantify cytokine production by CD4^+ T cells and monocytes following 12 or 36 h culture under distinct activation conditions. […]

The test system of test [2] is human CD4+ T cells. As to the kind of experiment: Rescue of CPM inhibitor-mediated increase in IFN-γ production by CD4+ T cells. To be noted: 24 h post activation, FIG. 13. The format is cell-based. The procedure:
FIG. 13. Serum-purified C5adesArg can partially rescue carboxypeptidase M inhibitor (CPM)-mediated increase in IFN-γ production by CD4+ T cells. Purified human CD4+ T cells were activated with depicted immobilized antibodies in media, or in media with the addition of a CPM inhibitor with or without either serum-purified C5a or C5adesArg. IFN-γ production by cells was assessed 24 h post activation using the CBA Cytokine Bead Array ([…]). Data (±SD) are from three experiments (n=3). *, p<0.05; (student's paired t-test).
The ability of serum-purified C5adesArg to rescue carboxypeptidase M inhibitor (CPM)-mediated increase in IFN-γ production by CD4+ T cells was determined. Purified human CD4^+ T cells were activated in media, or in media with the addition of a CPM inhibitor with or without either serum-purified C5a or C5adesArg. IFN-γ production by cells was assessed 24 h post activation using the CBA Cytokine Bead Array. […] However, the increase in IFN-γ production was markedly lower when C5adesArg was present than when C5a was present and also markedly lower than in the absence of both C5a and C5adesArg. Addition of purified C5adesArg but not C5a reduced CPM inhibitor-induced increase in IFN-γ by about 25%.

The subject of test [3] is human CD4+ T cells. As to the kind of experiment: Cytokine secretion by CD4+ T cells with C5aR or C5aR/C5L2 blockade (Cytometric Bead Array). It counts as cell-based. From the text: Human blood was obtained from healthy volunteers following ethical guidelines set by Kings College London (KCL) ethics committee (REC: 09/H0804/72). PBMCs were isolated by density centrifugation (Ficoll-Paque PLUS; GE healthcare, Uppsala, Sweden). Cell subsets were isolated by magnetic separation following manufacturer's instructions (Miltenyi Biotec, Auburn, Calif.). Monocytes were positively selected using anti-CD14 microbeads (average purity 97%) and CD4^+ T cells were isolated from the CD14-negative fraction using anti-CD4 microbeads (average purity 98%). Alternatively, CD4^+ T cells were isolated from purified PBMCs by cell sorting after staining with antibodies to CD14 and CD4 and CD3.
CD4^+ T cells and CD14^+ monocytes were cultured in medium (RPMI-1640 medium (Sigma-Alich, Suffolk, UK), supplemented with 1% GlutaMAX, 1% penicillin/streptomycin (both Life Technologies, Paisley, UK) and 10% FBS (HyClone Laboratories, Logan, Utah). In the case of T cells media was supplemented with 25 U/ml IL-2 (Sigma-Aldrich; or with concentrations indicated in figure legends). CD4^+ T cells (2.5×10^5) were cultured alone or together with plate-bound anti-CD3 (OKT3, Biolegend, San Diego, Calif.), anti-CD3 and anti-CD28 (CD28.2, BD Pharmingen, San Jose, Calif.) or anti-CD3 and anti-CD46 (TRA-2-10, provided by John Atkinson, Washington University, St Louis, Mo.) all immobilised onto 48-well plates at concentrations of 2 μg/ml PBS overnight at 4° C. Monocytes (2.5×10^5) were cultured either alone or in the presence of LPS or Flagellin (1 μg/ml). […] Cells were cultured at 37° C. and 5% CO2 and cytokine secetion assessed at 12, 24 or 36 h post activation.
The Th1/Th2/Th17 Cytometric Bead Array (BD Bioscience) was used to quantify cytokine production by CD4^+ T cells and monocytes following 12 or 36 h culture under distinct activation conditions. Samples were processed following manufacturer's instructions and acquired using BD FACScan. IL-1β amounts secreted into the cell media were measured by ELISA, according to the manufacturer's protocol (R&D Systems, Abingdon, UK).

A further test has as its system CD14+ monocytes. As to the kind of experiment: Pro-inflammatory cytokine release by monocytes (CBA). It counts as cell-based, human. As to conditions: resting and Flagellin-stimulated monocytes; 36 hours; dRA 7 μM, PMX53 10 μM; FIG. 9. How it is done: FIG. 9. C5L2 blockade induces pro-inflammatory cytokine release by human monocytes. CD14+ monocytes (2.5×10^5) were cultured for 36 hours and supernatants assayed for cytokines using CBA. Monocytes were treated with either C5aR/C5L2 double receptor antagonist (dRA; 7 μM), C5aR antagonist (PMX53; 10 μM) or control (non-treated). The effect of antagonist treatment was assessed on non-activated monocytes (white bars) as well as monocytes activated with 1 μg/ml of either Flagellin (light grey bars) or 100 ng/ml LPS (dark grey bars). Data represent n=4 experiments with SEM indicated. Statistical testing was not conducted as insufficient experimental repeats were performed to assume normal distribution. Asterisk denotes that the median value was 10,400 pg/ml.
Human blood was obtained from healthy volunteers following ethical guidelines set by Kings College London (KCL) ethics committee (REC: 09/H0804/72). PBMCs were isolated by density centrifugation (Ficoll-Paque PLUS; GE healthcare, Uppsala, Sweden). […]
The Th1/Th2/Th17 Cytometric Bead Array (BD Bioscience) was used to quantify cytokine production by CD4^+ T cells and monocytes following 12 or 36 h culture under distinct activation conditions. […] IL-1β amounts secreted into the cell media were measured by ELISA, according to the manufacturer's protocol (R&D Systems, Abingdon, UK).

[4] abbreviates: activated CD4+ T cells, dRA 7 μM, PMX53 10 μM, FIG. 6.

Consider “CPMi: carboxypetidase (CP) A and B inhibitor, which also effectively inhibits CPM (Sigma CO279; 25 nM) (QQHADPICNKPCKTHDDCSGAWFCQACWNSARTCGPYVG)”, for which the “effect on IFN-γ secretion” value in the test on human CD4+ T cells [1] (FIG. 12A) is “may also be present”. For the same molecule, the “secretion of IL-17” value in the test on human CD4+ T cells [1] (control cells, untreated cells and with C5aR antagonist, FIG. 12A) is listed as “increased secretion”. For the same molecule, the “secretion of IL-6” value in the test with human CD4+ T cells [1] (control cells, untreated cells and with C5aR antagonist, FIG. 12B) was “increased secretion”. Besides, the IFN-γ production result in the test on human CD4+ T cells [2] (all activation conditions) is reported as “increased IFN-γ production”.

As to PMX53 [reference compound], in the test on human CD4+ T cells [3] (setting [4]), the “secretion of IFN-γ” value is “no effect”. For the same molecule, the “secretion of IL-17” value in the test with human CD4+ T cells [3] (setting [4]) is recorded as “no effect”. Also, the “secretion of IL-6” value in the test on human CD4+ T cells [3] (resting and activated CD4+ T cells, FIG. 7A) was “no effect”; with CD14+ monocytes, “no effect”.

B1: C5adesArg: serum-purified C5a lacking the C-terminal Arg; naturally occurring agonist of C5L2 (protein)
chain: TLQKKIEEIAAKYKHSVVKKCCYDGACVNNDETCEQRAARISLGPRCIKAFTECCVVASQLRANISHKDMQLG
Consider B1, for which, in the test on human CD4+ T cells [2] (serum-purified protein added with CPM inhibitor), the “reduction of CPM inhibitor-induced increase in IFN-γ” value is “about 25%”.
